# Biological target: T1, hSCN3A sodium channels (Homo sapiens, UniProt Q9NY46)
# T1 construct: expressed in transfected cells
# Test: hSCN3A electrophysiology, whole-cell patch-clamp or PatchXpress 7000, estimated IC-50 (Table B)
# Format: cell-based
# Conditions: estimated IC-50; hSCN3A cells, whole-cell patch-clamp or PatchXpress 7000; read-out: SCN3A EIC-50
# In short: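 Stably transfected HEK cells, whole-cell voltage clamp at 22-24° C, manual or PatchXpress 7000. Cells held at empirically determined inactivation V1/2; current evoked by 20 msec step to 0 mV after 8 sec prepulse to V1/2.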
# T1 sequence (Q9NY46 whole entry): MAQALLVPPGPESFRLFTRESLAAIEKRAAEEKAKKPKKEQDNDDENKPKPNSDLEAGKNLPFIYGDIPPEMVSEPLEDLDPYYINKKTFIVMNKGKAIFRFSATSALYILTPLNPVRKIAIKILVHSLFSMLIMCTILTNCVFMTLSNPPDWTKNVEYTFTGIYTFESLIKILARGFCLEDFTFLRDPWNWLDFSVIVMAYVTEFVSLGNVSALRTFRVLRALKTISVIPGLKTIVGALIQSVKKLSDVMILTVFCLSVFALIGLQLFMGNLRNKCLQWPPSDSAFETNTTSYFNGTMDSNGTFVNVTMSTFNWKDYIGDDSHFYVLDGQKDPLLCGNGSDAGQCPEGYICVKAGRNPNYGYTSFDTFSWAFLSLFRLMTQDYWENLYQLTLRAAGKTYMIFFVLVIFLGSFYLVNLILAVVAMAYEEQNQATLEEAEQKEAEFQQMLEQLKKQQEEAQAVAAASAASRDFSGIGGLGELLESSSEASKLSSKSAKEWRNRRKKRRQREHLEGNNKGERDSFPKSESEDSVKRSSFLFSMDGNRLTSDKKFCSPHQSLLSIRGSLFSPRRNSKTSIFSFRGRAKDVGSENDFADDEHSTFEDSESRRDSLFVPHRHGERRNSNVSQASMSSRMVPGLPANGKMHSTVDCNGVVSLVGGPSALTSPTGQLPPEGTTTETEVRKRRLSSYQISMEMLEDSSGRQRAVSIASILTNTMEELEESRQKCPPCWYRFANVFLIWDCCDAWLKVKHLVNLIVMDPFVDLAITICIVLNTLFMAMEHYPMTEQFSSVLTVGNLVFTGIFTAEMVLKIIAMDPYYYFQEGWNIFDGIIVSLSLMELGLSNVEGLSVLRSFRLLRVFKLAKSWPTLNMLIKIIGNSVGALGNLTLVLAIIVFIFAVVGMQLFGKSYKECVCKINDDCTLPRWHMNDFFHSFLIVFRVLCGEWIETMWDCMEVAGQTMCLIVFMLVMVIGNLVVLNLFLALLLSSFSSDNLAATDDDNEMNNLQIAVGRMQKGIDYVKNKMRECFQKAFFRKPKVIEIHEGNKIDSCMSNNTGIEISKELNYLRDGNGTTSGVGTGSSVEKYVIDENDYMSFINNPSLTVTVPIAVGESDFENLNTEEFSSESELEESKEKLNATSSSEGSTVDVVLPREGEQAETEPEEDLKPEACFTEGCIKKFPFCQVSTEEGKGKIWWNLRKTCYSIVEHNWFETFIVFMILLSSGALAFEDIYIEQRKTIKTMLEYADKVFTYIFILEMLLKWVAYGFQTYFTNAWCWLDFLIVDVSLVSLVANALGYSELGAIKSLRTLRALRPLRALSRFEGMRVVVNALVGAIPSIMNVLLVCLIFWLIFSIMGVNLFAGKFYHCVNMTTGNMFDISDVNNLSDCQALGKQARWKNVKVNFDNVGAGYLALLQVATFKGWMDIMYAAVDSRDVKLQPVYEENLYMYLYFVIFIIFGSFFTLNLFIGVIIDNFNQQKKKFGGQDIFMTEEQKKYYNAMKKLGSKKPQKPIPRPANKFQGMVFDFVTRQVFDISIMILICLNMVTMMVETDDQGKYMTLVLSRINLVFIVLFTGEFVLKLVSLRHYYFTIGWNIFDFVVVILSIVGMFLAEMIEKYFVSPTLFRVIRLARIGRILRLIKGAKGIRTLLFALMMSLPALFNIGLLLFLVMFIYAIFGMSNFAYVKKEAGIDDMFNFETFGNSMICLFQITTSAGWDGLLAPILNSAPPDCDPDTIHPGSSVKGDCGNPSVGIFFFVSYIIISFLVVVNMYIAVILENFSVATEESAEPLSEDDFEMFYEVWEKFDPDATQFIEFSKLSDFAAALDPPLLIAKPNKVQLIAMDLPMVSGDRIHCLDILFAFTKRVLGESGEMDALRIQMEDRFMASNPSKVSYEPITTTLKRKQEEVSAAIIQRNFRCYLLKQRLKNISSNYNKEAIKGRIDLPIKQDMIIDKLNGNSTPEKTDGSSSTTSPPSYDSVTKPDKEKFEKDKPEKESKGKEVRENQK
row,Structure (SMILES),IC50 [nM]
1,"CC(C)(C)CCNC(=O)c1ccc(S(=O)(=O)Nc2ncc(Cl)s2)c(F)c1 [Example 389, 4-{[(5-Chloro-1,3-thiazol-2-yl)amino]sulfonyl}-N-(3,3-dimethylbutyl)-3-fluorobenzamide]",610
2,"O=C(NCc1ccc(C(F)(F)F)c(F)c1)c1ccc(S(=O)(=O)Nc2ncc(Cl)s2)c(F)c1 [Example 310, 4-{[(5-Chloro-1,3-thiazol-2-yl)amino]sulfonyl}-3-fluoro-N-[3-fluoro-4-(trifluoromethyl)benzyl]benzamide]",50
3,"COc1ccccc1CNC(=O)c1ccc(S(=O)(=O)Nc2nccs2)cc1 [Example 174, N-(2-methoxybenzyl)-4-[(1,3-thiazol-2-ylamino)sulfonyl]benzamide]",3970
4,"O=C(NCc1cc(Cl)ccc1Cl)c1ccc(S(=O)(=O)Nc2nccs2)cc1 [Example 126, N-(2,5-dichlorobenzyl)-4-[(1,3-thiazol-2-ylamino)sulfonyl]benzamide]",290
5,"O=C(NCc1ccc(Cl)c(Cl)c1)c1ccc(S(=O)(=O)Nc2nccs2)cc1 [Example 388, N-(3,4-dichlorobenzyl)-4-[(1,3-thiazol-2-ylamino)sulfonyl]benzamide]",110
6,"O=C(NCc1ccc(OC(F)(F)F)cc1)c1ccc(S(=O)(=O)Nc2nccs2)cc1F [Example 330, 2-Fluoro-4-[(1,3-thiazol-2-ylamino)sulfonyl]-N-[4-(trifluoromethoxy)benzyl]benzamide]",130
7,"Cc1nnc(NS(=O)(=O)c2ccc(C(=O)NCc3ccc(C(F)(F)F)cc3)cc2)s1 [Example 11, 4-{[(5-Methyl-1,3,4-thiadiazol-2-yl)amino]sulfonyl}-N-[4-(trifluoromethyl)benzyl]benzamide]",2560
8,"COc1ccccc1C1CN(C(=O)c2ccc(S(=O)(=O)Nc3nccs3)cc2)CCO1 (stereo not drawn) [Example 232, 4-{[2-(2-Methoxyphenyl)morpholin-4-yl]carbonyl}-N-1,3-thiazol-2-yl-benzenesulfonamide]",3420
9,"O=C(NCc1cccc(C(F)(F)F)c1)c1ccc(S(=O)(=O)Nc2ncc(Cl)s2)c(Cl)c1 [Example 372, 3-Chloro-4-{[(5-chloro-1,3-thiazol-2-yl)amino]sulfonyl}-N-[3-(trifluoromethyl)benzyl] benzamide]",2260
10,"O=C(NCc1ccccc1-c1ccccc1)c1ccc(S(=O)(=O)Nc2nccs2)cc1 [Example 415, N-(biphenyl-2-ylmethyl)-4-[(1,3-thiazol-2-ylamino)sulfonyl] benzamide]",380
11,"O=C(NCc1ccc(F)c(Cl)c1)c1ccc(S(=O)(=O)Nc2ncc(Cl)s2)c(Cl)c1 [Example 363, 3-Chloro-N-(3-chloro-4-fluorobenzyl)-4-{[(5-chloro-1,3-thiazol-2-yl)amino]sulfonyl} benzamide]",1200
12,"O=C(NCc1cccc(-n2cccn2)c1)c1ccc(S(=O)(=O)Nc2nccs2)cc1 [Example 59, N-[3-(1H-pyrazol-1-yl)benzyl]-4-[(1,3-thiazol-2-ylamino)sulfonyl]benzamide]",1690
13,"CC(C)(NC(=O)c1ccc(S(=O)(=O)Nc2nccs2)cc1)c1ccc(Cl)cc1 [Example 124, N-[1-(4-chlorophenyl)-1-methylethyl]-4-[(1,3-thiazol-2-ylamino)sulfonyl]benzamide]",1810
14,"Cc1c(Cl)cccc1CNC(=O)c1ccc(S(=O)(=O)Nc2nccs2)cc1 [Example 61, N-(3-chloro-2-methylbenzyl)-4-[(1,3-thiazol-2-ylamino)sulfonyl]benzamide]",160
15,"O=C(NCc1ccc(Oc2ccccc2)cc1)c1ccc(S(=O)(=O)Nc2nccs2)cc1 [Example 409, N-(4-phenoxybenzyl)-4-[(1,3-thiazol-2-ylamino)sulfonyl] benzamide]",40
16,"O=C(NCc1ccc(C(F)(F)F)nc1)c1ccc(S(=O)(=O)Nc2nccs2)cc1 [Example 408, 4-[(1,3-Thiazol-2-ylamino)sulfonyl]-N-{[6-(trifluoromethyl)pyridin-3-yl]methyl}benzamide]",1090
17,"O=C(c1ccc(S(=O)(=O)Nc2nccs2)cc1)N1CCCC(Cc2ccc(F)cc2)C1 (stereo not drawn) [Example 222, 4-{[3-(4-Fluorobenzyl)piperidin-1-yl]carbonyl}-N-1,3-thiazol-2-yl-benzenesulfonamide]",980
18,"O=C(NCc1ccc(F)cc1Cl)c1ccc(S(=O)(=O)Nc2nccs2)cc1 [Example 95, N-(2-chloro-4-fluorobenzyl)-4-[(1,3-thiazol-2-ylamino)sulfonyl]benzamide]",> 100
19,"O=C(Nc1ccn(Cc2ccc(Cl)cc2)n1)c1ccc(S(=O)(=O)Nc2nccs2)cc1 [Example 308, N-[1-(4-chlorobenzyl)-1H-pyrazol-3-yl]-4-[(1,3-thiazol-2-ylamino)sulfonyl]benzamide]",320
20,"O=C(NC1(Cc2ccc(Cl)cc2)CC1)c1ccc(S(=O)(=O)Nc2nccs2)cc1 [Example 134, N-[1-(4-chlorobenzyl)cyclopropyl]-4-[(1,3-thiazol-2-ylamino)sulfonyl]benzamide]",2280

row,Structure (SMILES),IC50 [nM]
1,"O=C(NCc1ccc(C(F)(F)F)c(F)c1)c1ccc(S(=O)(=O)Nc2nccs2)c(Cl)c1 [Example 289, 3-Chloro-N-[3-fluoro-4-(trifluoromethyl)benzyl]-4-[(1,3-thiazol-2-yl-amino)sulfonyl]benzamide]",340
2,"CC(NC(=O)c1ccc(S(=O)(=O)Nc2ncc(Cl)s2)cc1)c1ccc(C(F)(F)F)cc1 (stereo not drawn) [Example 44, 4-{[(5-Chloro-1,3-thiazol-2-yl)amino]sulfonyl}-N-{1-[4-(trifluoromethyl)phenyl]ethyl}benzamide]",270
3,"Cc1csc(NS(=O)(=O)c2ccc(C(=O)NCc3ccc(C(F)(F)F)cc3)cc2)n1 [Example 391, 4-{[(4-methyl-1,3-thiazol-2-yl)amino]sulfonyl}-N-[4-(trifluoromethyl)benzyl] benzamide]",1350
4,"Cc1ccccc1O[C@H]1CCN(C(=O)c2ccc(S(=O)(=O)Nc3nccs3)cc2)C1 [Example 198, 4-{[(3S)-3-(2-methylphenoxy)pyrrolidin-1-yl]carbonyl}-N-1,3-thiazol-2-yl-benzenesulfonamide]",3030
5,"O=C(NCc1ccc(-n2cccn2)cc1)c1ccc(S(=O)(=O)Nc2nccs2)cc1 [Example 60, N-[4-(1H-pyrazol-1-yl)benzyl]-4-[(1,3-thiazol-2-ylamino)sulfonyl]benzamide]",1500
6,"O=C(N[C@H]1C[C@@H]1c1ccccc1)c1ccc(S(=O)(=O)Nc2ncc(Cl)s2)cc1 [Example 42, 4-{[(5-Chloro-1,3-thiazol-2-yl)amino]sulfonyl}-N-[(1S,2R)-2-phenylcyclopropyl]benzamide]",510
7,"Cc1cc(Cl)ccc1CNC(=O)c1ccc(S(=O)(=O)Nc2nccs2)cc1 [Example 414, N-(4-chloro-2-methylbenzyl)-4-[(1,3-thiazol-2-ylamino)sulfonyl] benzamide]",240
8,"COc1ccc(NC(=O)c2ccc(S(=O)(=O)Nc3nccs3)cc2)cn1 [Example 177, N-(6-methoxypyridin-3-yl)-4-[(1,3-thiazol-2-ylamino)sulfonyl]benzamide]",5670
9,"O=C(NCc1ccc(Cl)cc1F)c1ccc(S(=O)(=O)Nc2nccs2)cc1 [Example 93, N-(4-chloro-2-fluorobenzyl)-4-[(1,3-thiazol-2-ylamino)sulfonyl]benzamide]",460
10,"O=C(NCc1ccc(F)c(OC(F)(F)F)c1)c1ccc(S(=O)(=O)Nc2nccs2)cc1F [Example 331, 2-Fluoro-N-[4-fluoro-3-(trifluoromethoxy)benzyl]-4-[(1,3-thiazol-2-ylamino)sulfonyl] benzamide]",900
11,"O=C(NCc1ccc(Cl)nc1)c1ccc(S(=O)(=O)Nc2nccs2)cc1 [Example 407, N-[(6-chloropyridin-3-yl)methyl]-4-[(1,3-thiazol-2-ylamino)sulfonyl] benzamide]",1780
12,"O=C(NCc1ccc(OC(F)(F)F)cc1)c1ccc(S(=O)(=O)Nc2ncc(Cl)s2)cc1 [Example 45, 4-{[(5-Chloro-1,3-thiazol-2-yl)amino]sulfonyl}-N-[4-(trifluoromethoxy)benzyl]benzamide]",70
13,"O=C(NCc1ccc(C(F)(F)F)cc1)c1ccc(S(=O)(=O)Nc2nccs2)c(F)c1 [Example 303, 3-Fluoro-4-[(1,3-thiazol-2-ylamino)sulfonyl]-N-[4-(trifluoromethyl)benzyl]benzamide]",140
14,"O=C(NCc1ccc(C(F)(F)F)cc1)c1ccc(S(=O)(=O)Nc2ccn[nH]2)cc1 [Example 24, 4-[(1H-Pyrazol-5-ylamino)sulfonyl]-N-[4-(trifluoromethyl)benzyl]benzamide]",> 10000
15,"O=C(NCc1cccc(-c2ccccc2)c1)c1ccc(S(=O)(=O)Nc2nccs2)cc1 [Example 411, N-(biphenyl-3-ylmethyl)-4-[(1,3-thiazol-2-ylamino)sulfonyl] benzamide]",120
16,"O=C(NCc1ccc(C(F)(F)F)c(F)c1)c1ccc(S(=O)(=O)Nc2ncc(Cl)s2)cc1F [Example 356, 4-{[(5-Chloro-1,3-thiazol-2-yl)amino]sulfonyl}-2-fluoro-N-[3-fluoro-4-(trifluoromethyl)benzyl]benzamide]",210
17,"Cc1ccc(C2(O)CCN(C(=O)c3ccc(S(=O)(=O)Nc4nccs4)cc3)CC2)cc1 [Example 252, 4-{[4-Hydroxy-4-(4-methylphenyl)piperidin-1-yl]carbonyl}-N-1,3-thiazol-2-yl-benzenesulfonamide]",2110
18,"O=C(NC1(c2ccc(Cl)cc2)CC1)c1ccc(S(=O)(=O)Nc2nccs2)cc1 [Example 139, N-[1-(4-chlorophenyl)cyclopropyl]-4-[(1,3-thiazol-2-ylamino)sulfonyl]benzamide]",1660
19,"O=C(NCc1ccc(OC(F)(F)F)c(F)c1)c1ccc(S(=O)(=O)Nc2ncns2)cc1Cl [Example 376, 2-Chloro-N-[3-fluoro-4-(trifluoromethoxy)benzyl]-4-[(1,2,4-thiadiazol-5-ylamino)sulfonyl] benzamide]",590

# — patent publication US8741934B2, “Inhibitors of ion channels” (Pfizer Limited, priority 2007, dated 2014)
